Laboratory results reported in ChEMBL document CHEMBL4619804, “Target-Based Identification and Optimization of 5-Indazol-5-yl Pyridones as Toll-like Receptor 7 and 8 Antagonists Using a Biochemical TLR8 Antagonist Competition Assay” (J Med Chem, 2020).

What was measured:
Toll-like receptor 7 = target: T1, Toll-like receptor 7 (Mus musculus, UniProt P58681); test: Antagonist activity at TLR7 in mouse whole blood assessed as inhibition of DOTAP-ssRNA40 induced IFNalpha production preincubated for 30 mins followed by ssRNA40 addition measured after 20 hrs by ELISA; format: tissue-based
T1 sequence (P58681 whole entry): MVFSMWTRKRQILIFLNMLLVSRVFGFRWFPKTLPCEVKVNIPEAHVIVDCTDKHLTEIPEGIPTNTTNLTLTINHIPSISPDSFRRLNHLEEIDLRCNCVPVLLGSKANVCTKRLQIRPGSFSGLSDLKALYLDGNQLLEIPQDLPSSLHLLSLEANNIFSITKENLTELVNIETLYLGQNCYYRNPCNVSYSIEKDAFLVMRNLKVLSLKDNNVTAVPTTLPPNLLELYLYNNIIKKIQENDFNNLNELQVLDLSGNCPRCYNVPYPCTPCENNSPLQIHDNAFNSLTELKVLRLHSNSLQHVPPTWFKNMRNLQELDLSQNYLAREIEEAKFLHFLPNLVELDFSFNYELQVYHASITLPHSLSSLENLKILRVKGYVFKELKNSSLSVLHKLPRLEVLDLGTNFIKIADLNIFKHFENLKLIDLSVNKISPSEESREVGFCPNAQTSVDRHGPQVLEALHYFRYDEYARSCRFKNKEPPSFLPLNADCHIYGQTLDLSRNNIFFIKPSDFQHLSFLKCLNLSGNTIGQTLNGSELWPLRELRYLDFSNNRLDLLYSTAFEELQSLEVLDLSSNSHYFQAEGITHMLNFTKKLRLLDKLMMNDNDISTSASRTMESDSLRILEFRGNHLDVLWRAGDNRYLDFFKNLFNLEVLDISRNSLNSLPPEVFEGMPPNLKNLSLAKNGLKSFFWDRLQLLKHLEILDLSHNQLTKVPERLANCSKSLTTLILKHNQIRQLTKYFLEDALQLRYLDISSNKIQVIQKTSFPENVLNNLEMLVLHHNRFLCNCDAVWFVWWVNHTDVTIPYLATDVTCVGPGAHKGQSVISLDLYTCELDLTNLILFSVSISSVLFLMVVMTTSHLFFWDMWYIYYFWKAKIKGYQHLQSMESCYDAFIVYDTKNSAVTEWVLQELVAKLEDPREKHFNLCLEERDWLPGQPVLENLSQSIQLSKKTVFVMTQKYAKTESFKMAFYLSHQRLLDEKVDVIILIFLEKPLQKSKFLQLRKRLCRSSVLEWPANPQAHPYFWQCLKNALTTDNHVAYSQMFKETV

[1] = target: T2, Interleukin-1 receptor type 1 (Homo sapiens, UniProt P14778); test: Antagonist activity at IL1R in human PBMC assessed as inhibition of IL1beta-induced TNFalpha production preincubated for 30 mins followed by IL1beta addition and measured after 20 hrs by HTRF assay; format: cell-based
T2 sequence (P14778 whole entry): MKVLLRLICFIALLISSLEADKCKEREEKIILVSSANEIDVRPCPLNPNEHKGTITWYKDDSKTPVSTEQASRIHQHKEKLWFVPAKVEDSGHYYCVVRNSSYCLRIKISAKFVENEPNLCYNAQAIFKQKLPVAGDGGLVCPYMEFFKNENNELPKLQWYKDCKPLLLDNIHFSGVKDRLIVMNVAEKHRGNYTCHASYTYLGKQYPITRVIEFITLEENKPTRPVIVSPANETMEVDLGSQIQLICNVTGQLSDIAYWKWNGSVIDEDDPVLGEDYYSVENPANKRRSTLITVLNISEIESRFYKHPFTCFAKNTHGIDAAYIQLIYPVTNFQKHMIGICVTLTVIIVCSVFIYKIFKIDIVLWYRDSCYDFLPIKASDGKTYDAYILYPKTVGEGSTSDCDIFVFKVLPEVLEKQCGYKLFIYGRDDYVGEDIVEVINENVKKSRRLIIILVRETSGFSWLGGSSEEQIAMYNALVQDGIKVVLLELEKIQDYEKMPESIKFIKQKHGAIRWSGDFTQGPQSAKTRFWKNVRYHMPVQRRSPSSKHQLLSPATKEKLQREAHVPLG

Toll-like receptor 1 = target: T3, Toll-like receptor 1 (Homo sapiens, UniProt Q15399); test: Antagonist activity at TLR1 in human PBMC assessed as inhibition of Pam3CSK4-induced TNFalpha production preincubated for 30 mins followed by Pam3CSK4 addition and measured after 20 hrs by HTRF assay; format: cell-based
T3 sequence (Q15399 whole entry): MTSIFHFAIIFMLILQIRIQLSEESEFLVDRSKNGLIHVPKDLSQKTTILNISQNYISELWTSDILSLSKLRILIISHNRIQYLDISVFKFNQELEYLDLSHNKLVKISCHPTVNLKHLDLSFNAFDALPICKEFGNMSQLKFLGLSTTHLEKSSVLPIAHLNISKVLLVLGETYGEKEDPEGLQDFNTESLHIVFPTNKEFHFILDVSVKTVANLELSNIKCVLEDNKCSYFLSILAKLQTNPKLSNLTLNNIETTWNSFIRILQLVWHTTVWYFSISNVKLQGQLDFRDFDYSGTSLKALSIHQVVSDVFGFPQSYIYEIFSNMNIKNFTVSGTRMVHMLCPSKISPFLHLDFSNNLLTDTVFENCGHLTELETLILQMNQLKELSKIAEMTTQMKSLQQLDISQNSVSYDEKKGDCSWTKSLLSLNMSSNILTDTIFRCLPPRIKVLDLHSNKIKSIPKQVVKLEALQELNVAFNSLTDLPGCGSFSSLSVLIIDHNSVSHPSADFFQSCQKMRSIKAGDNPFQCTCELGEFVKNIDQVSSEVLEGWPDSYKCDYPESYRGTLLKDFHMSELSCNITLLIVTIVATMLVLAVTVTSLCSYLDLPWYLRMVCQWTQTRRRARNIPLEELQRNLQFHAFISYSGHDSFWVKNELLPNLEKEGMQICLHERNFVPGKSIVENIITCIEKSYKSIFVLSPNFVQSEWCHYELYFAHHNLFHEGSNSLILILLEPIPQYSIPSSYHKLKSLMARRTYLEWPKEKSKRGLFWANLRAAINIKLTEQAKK

**Q.** `O=c1ccc(-c2cc(C(F)(F)F)c3nn([C@H]4CCNC[C@@H]4F)cc3c2)c2n1CCC2` was tested. Which IC50 (Toll-like receptor 7) did it give?
**A.** 0.18 µM

**Q.** What about the IC50 [1] of the same molecule?
**A.** > 6.5 µM

**Q.** What about the IC50 (Toll-like receptor 1) of the same molecule?
**A.** > 6.5 µM
